{"source": "patent US12707888B2", "about": "“Asymmetric donor-acceptor molecular dyes” (THE UNIVERSITY OF NORTH CAROLINA AT CHARLOTTE, priority 2019, dated 2026)", "key": {"[1]": {"assay": "Solubility in aqueous environments", "assay_type": "physicochemical"}, "[2]": {"assay": "Lippert-Mataga analysis of excited state dipole moments", "assay_type": "physicochemical", "details": "semi-empirically calculated using the Lippert-Mataga equation", "procedure": "The calculated HOMOs/LUMOs indicate that the strong solvatofluorochromism arises from an ICT mechanism, whereby the ground state has significant electron localization on the donor side of the molecule whereas the electron density shifts to the acceptor moiety in the excited state. To more directly quantify the strong ICT character of the TTz dyes, the excited-state dipole moments were calculated using the Lippert-Mataga equation (Eq 1):\n[formula] where va and vf are the wavenumbers of the absorption and emission peaks in cm^−1, respectively; μ* and μ are the excited state and ground state dipoles, respectively; ϵ0 is the vacuum permittivity, h is Planck's constant, c is the speed of light, a is the Onsager cavity radius, Δf is the orientation polarizability, ϵ is the relative permittivity, and η is the refractive index. The dipoles were calculated using Spartan 2016 software, and the Onsager cavity radii were calculated using Gaussian '09 software.\nFIGS. 9A and 9B show the Stokes shift of Bu2N-TTz-Py and Ph2N-TTz-COOH versus Δf, respectively. From the slopes of the Lippert-Mataga plots, the change between the dipole moments of the ground and excited states can be determined. Even though the Lippert-Mataga equation assumes no specific solvent-solute interactions (e.g. hydrogen bonding) and ignores solute polarizability, high degrees of linearity are apparent; and therefore, the estimations of the excited state dipoles are regarded as reliable. […] Perhaps owing to the minimal solvent interactions and rapid vibrational relaxation, the estimated changes in dipole moments (Δμ) are remarkably large (Table IV). […] Therefore, it is expected that these asymmetric TTzs dyes would be well suited to give high sensitivity in sensing applications whereby small changes in the polarity of the environment can lead to large differences in the wavelengths of fluorescence."}}, "data": [{"smiles": "CCCCN(CCCC)c1ccc(-c2nc3sc(-c4ccncc4)nc3s2)cc1", "note": "[Bu2N-TTz-Py, 2-(N,N-dibutyl-4-aminophenyl)-5-(4-pyridyl) thiazolo[5,4-d]thiazole]", "values": [{"measurement": "solubility in aqueous environments", "setting": "[1]", "result": "poor solubility"}, {"measurement": "Change in Dipole Δμ", "setting": "[2]", "result": 15.9, "unit": "D"}, {"measurement": "Excited State Dipole μ*", "setting": "[2]", "result": 24.3, "unit": "D"}]}]}
